# In patent US9371319B2, “Pyrrolopyridineamino derivatives as MPS1 inhibitors” (priority 2011, dated 2016):
# pIC50: −log10 of the molar value.
# Target: T1, full length MPS1 (Homo sapiens, UniProt P33981)
# T1 sequence (P33981 1-857): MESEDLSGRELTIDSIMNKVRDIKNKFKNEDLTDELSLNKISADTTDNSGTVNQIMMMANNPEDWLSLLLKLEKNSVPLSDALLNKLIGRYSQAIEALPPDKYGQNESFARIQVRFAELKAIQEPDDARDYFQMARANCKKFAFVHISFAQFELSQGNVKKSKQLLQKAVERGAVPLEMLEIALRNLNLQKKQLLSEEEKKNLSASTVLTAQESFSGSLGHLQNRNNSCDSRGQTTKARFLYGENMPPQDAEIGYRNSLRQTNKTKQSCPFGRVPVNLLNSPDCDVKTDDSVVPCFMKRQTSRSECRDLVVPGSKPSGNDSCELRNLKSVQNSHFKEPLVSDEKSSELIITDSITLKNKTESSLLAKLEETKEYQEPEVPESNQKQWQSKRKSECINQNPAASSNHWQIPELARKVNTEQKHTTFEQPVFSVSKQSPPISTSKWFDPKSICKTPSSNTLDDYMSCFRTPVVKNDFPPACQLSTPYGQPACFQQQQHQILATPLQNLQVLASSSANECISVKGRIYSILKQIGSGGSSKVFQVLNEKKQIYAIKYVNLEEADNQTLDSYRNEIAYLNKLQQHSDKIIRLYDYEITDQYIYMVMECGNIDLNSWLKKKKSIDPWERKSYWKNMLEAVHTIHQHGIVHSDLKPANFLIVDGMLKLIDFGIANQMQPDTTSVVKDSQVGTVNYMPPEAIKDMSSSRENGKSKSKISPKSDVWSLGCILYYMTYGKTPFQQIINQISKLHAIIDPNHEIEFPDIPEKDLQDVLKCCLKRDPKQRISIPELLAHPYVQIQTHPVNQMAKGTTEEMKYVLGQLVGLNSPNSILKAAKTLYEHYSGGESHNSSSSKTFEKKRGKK
# Assay: biochemical
# Protocol: Measurement of Inhibition of MPS1 Kinase
# (5 μM), ATP (10 μM), either DMSO (1% v/v) or the test compound (in the range 0.25 nM-100 μM in 1% DMSO) and assay buffer (50 mM HEPES (pH 7.0), 0.02% NaN3, 0.01% BSA, 0.1 mM Orthovandate, […], 1 μM DTT, Roche protease inhibitor). The reaction was carried out for 60 min at room temperature and stopped by the addition of buffer (10 μl) containing 20 mM EDTA, 0.05% (v/v) Brij-35, in 0.1M HEPES-buffered saline (Free acid, Sigma, UK). The plate was read on a Caliper EZ reader II (Caliper Life Sciences).
# The % inhibition of the compounds is calculated relative to the means of selected control wells. […] The % inhibitions at each concentration are then fitted to a 4 parameter logistic fit: y=(a+((b−a)/(1+((c/x^d)))) where a=asym min, b=asym max, c=IC50 and d=hill coefficient
row,SMILES,pIC50
1,CN(C)C(=O)c1ccc(Nc2cc3c(cn2)cc(-c2cnn(C)c2)n3C(=O)OC(C)(C)C)c(OC(F)(F)F)c1 [Example 3],8.22
2,CC(=O)c1ccccc1Nc1cc2c(cn1)cc(-c1cnn(C)c1)n2C(=O)OC(C)(C)C [Example 9],7.11
3,COc1cc(C(=O)N2CCOCC2)ccc1Nc1cc2c(cn1)cc(-c1cnn(C)c1)n2C(=O)OC(C)(C)C [Example 10],8.30
4,COCCNC(=O)c1ccc(Nc2cc3c(cn2)cc(-c2cnn(C)c2)n3C(=O)OC(C)(C)C)c(OC)c1 [Example 11],8.05
5,COc1cc(C(=O)N2CC(OC)C2)ccc1Nc1cc2c(cn1)cc(-c1cnn(C)c1)n2C(=O)OC(C)(C)C [Example 12],8.15
6,CN(C)C(=O)c1cc(Cl)c(Nc2cc3c(cn2)cc(-c2cnn(C)c2)n3C(=O)OC(C)(C)C)c(Cl)c1 [Example 13],7.70
7,Cn1cc(-c2cc3cnc(Nc4ccc(-c5nncn5C)cc4Cl)cc3n2C(=O)OC(C)(C)C)cn1 [Example 18],9.00
8,Cc1c(-c2ccc(Nc3cc4c(cn3)cc(-c3cnn(C)c3)n4C(=O)OC(C)(C)C)c(Cl)c2)cnn1C [Example 20],8.15
9,Cc1nn(C)cc1-c1ccc(Nc2cc3c(cn2)cc(-c2cnn(C)c2)n3C(=O)OC(C)(C)C)c(Cl)c1 [Example 21],8.15
10,Cn1cc(-c2cc3cnc(Nc4ccc(-c5nccn5C)cc4Cl)cc3n2C(=O)OC(C)(C)C)cn1 [Example 22],8.52
11,Cc1oncc1-c1ccc(Nc2cc3c(cn2)cc(-c2cnn(C)c2)n3C(=O)OC(C)(C)C)c(Cl)c1 [Example 23],7.96
12,Cn1cc(-c2cc3cnc(Nc4ccc(-c5cncs5)cc4Cl)cc3n2C(=O)OC(C)(C)C)cn1 [Example 24],8.05
13,COc1cc(CN2CCCC2)ccc1Nc1cc2c(cn1)cc(-c1cnn(C)c1)n2C(=O)OC(C)(C)C [Example 33],7.80
14,COc1cc(CN(C)C(=O)OC(C)(C)C)ccc1Nc1cc2c(cn1)cc(-c1cnn(C)c1)n2C(=O)OC(C)(C)C [Example 34],6.95
15,COc1cc(CN(C)C)ccc1Nc1cc2c(cn1)cc(-c1cnn(C)c1)n2C(=O)OC(C)(C)C [Example 35],8.10
16,Cn1cc(-c2cc3cnc(Nc4cccc(OCC#N)c4)cc3n2C(=O)OC(C)(C)C)cn1 [Example 36],6.81
17,COC1CN(C(=O)c2ccc(Nc3cc4c(cn3)cc(-c3cnn(C)c3)n4C(=O)OC(C)(C)C)c(Cl)c2)C1 [Example 37],8.10
18,CCN(C)C(=O)c1ccc(Nc2cc3c(cn2)cc(-c2cnn(C)c2)n3C(=O)OC(C)(C)C)c(Cl)c1 [Example 39],8.40
19,Cn1cc(-c2cc3cnc(Nc4ccc(C(=O)N5CCCC5)cc4Cl)cc3n2C(=O)OC(C)(C)C)cn1 [Example 40],8.40

row,SMILES,pIC50
1,CN1CCN(C(=O)c2ccc(Nc3cc4c(cn3)cc(-c3cnn(C)c3)n4C(=O)OC(C)(C)C)c(Cl)c2)CC1 [Example 41],8.10
2,Cn1cc(-c2cc3cnc(Nc4ccc(-c5ccnn5C)cc4Cl)cc3n2C(=O)OC(C)(C)C)cn1 [Example 44],7.72
3,Cc1nc(C)c(-c2ccc(Nc3cc4c(cn3)cc(-c3cnn(C)c3)n4C(=O)OC(C)(C)C)c(Cl)c2)s1 [Example 45],7.28
4,COc1cc(-c2ccc(Nc3cc4c(cn3)cc(-c3cnn(C)c3)n4C(=O)OC(C)(C)C)c(Cl)c2)ccn1 [Example 46],7.12
5,Cc1ncc(-c2ccc(Nc3cc4c(cn3)cc(-c3cnn(C)c3)n4C(=O)OC(C)(C)C)c(Cl)c2)n1C [Example 47],8.30
6,COc1ccc(-c2ccc(Nc3cc4c(cn3)cc(-c3cnn(C)c3)n4C(=O)OC(C)(C)C)c(Cl)c2)cn1 [Example 48],7.80
7,Cc1ccc(-c2ccc(Nc3cc4c(cn3)cc(-c3cnn(C)c3)n4C(=O)OC(C)(C)C)c(Cl)c2)cn1 [Example 49],8.05
8,Cn1cc(-c2cc3cnc(Nc4ccc(C(=O)N5CC(F)(F)C5)cc4Cl)cc3n2C(=O)OC(C)(C)C)cn1 [Example 50],8.22
9,Cn1cc(-c2cc3cnc(Nc4ccccc4C#N)cc3n2C(=O)OC(C)(C)C)cn1 [Example 54],7.49
10,Cn1cc(-c2cc3cnc(Nc4ccc(S(C)(=O)=O)cc4Cl)cc3n2C(=O)OC(C)(C)C)cn1 [Example 55],7.62
11,Cn1cc(-c2ccc(Cl)c(Nc3cc4c(cn3)cc(-c3cnn(C)c3)n4C(=O)OC(C)(C)C)c2)cn1 [Example 62],6.27
12,Cc1ncn(C)c1-c1ccc(Nc2cc3c(cn2)cc(-c2cnn(C)c2)n3C(=O)OC(C)(C)C)c(Cl)c1 [Example 63],8.30
13,"CN(C)C(=O)c1ccc(Nc2cc3c(cn2)cc(-c2cnn(C)c2)n3CC2CCCC2)c(Cl)c1 [Example 64, 3-Chloro-4-(1-(cyclopentylmethyl)-2-(1-methyl-1H-pyrazol-4-yl)-1H-pyrrolo[3,2-c]pyridin-6-ylamino)-N,N-dimethylbenzamide]",7.33
14,CN(C)C(=O)c1ccc(Nc2cc3c(cn2)c(Cl)c(-c2cnn(C)c2)n3C(=O)OC(C)(C)C)c(Cl)c1 [Example 65],6.90
15,CN(C)C(=O)c1ccc(Nc2cc3c(cn2)cc(-c2cnn(C)c2)n3CC2CC2)c(Cl)c1 [Example 66],7.52
16,Cn1cc(-c2cc3cnc(Nc4ccccc4Cl)cc3n2CC2CCCCC2)cn1 [Example 67],5.31
17,COc1cc(-c2cnc(C)n2C)ccc1Nc1cc2c(cn1)cc(-c1cnn(C)c1)n2C(=O)OC(C)C [Example 68],8.70
18,CN(C)C(=O)c1ccc(Nc2cc3c(cn2)cc(-c2cnn(C)c2)n3Cc2ccc(F)cc2)c(Cl)c1 [Example 70],7.42
19,CN(C)C(=O)c1ccc(Nc2cc3c(cn2)cc(-c2cnn(C)c2)n3CC2CCCCC2)c(Cl)c1 [Example 71],7.17

row,SMILES,pIC50
1,CN(C)C(=O)c1ccc(Nc2cc3c(cn2)cc(-c2cnn(C)c2)n3C(=O)OC2CCCC2)c(Cl)c1 [Example 72],8.52
2,CN(C)C(=O)c1ccc(Nc2cc3c(cn2)cc(-c2cnn(C)c2)n3C2CCCC2)c(Cl)c1 [Example 73],8.15
3,CC(C)n1c(-c2cnn(C)c2)cc2cnc(Nc3ccc(C(=O)N(C)C)cc3Cl)cc21 [Example 74],7.30
4,Cn1cc(-c2ccc(Nc3cc4c(cn3)cc(-c3cnn(C)c3)n4C(=O)OC3CCCC3)c(Cl)c2)cn1 [Example 75],7.92
5,CC(C)OC(=O)n1c(-c2cnn(C)c2)cc2cnc(Nc3ccc(-c4cnn(C)c4)cc3Cl)cc21 [Example 76],7.77
6,CC(C)OC(=O)n1c(-c2cnn(C)c2)cc2cnc(Nc3ccc(C(=O)N(C)C)cc3Cl)cc21 [Example 77],8.22
7,Cn1cc(-c2cc3cnc(Nc4ccc(-c5cncn5C)cc4Cl)cc3n2C(=O)OC2CCCC2)cn1 [Example 78],7.96
8,CC(C)OC(=O)n1c(-c2cnn(C)c2)cc2cnc(Nc3ccc(-c4cncn4C)cc3Cl)cc21 [Example 79],8.52
9,Cn1cc(-c2cc3cnc(Nc4ccc(-c5cncn5C)cc4Cl)cc3n2C2CCCC2)cn1 [Example 80],8.52
10,CN(C)C(=O)c1ccc(Nc2cc3c(cn2)cc(-c2cnn(C)c2)n3C(=O)OC2CCC2)c(Cl)c1 [Example 81],8.52
11,Cn1cc(-c2cc3cnc(Nc4ccc(-c5cncn5C)cc4Cl)cc3n2C(=O)OC2CCC2)cn1 [Example 82],8.30
12,Cc1ncc(-c2ccc(Nc3cc4c(cn3)cc(-c3cnn(C)c3)n4C(=O)OC(C)C)c(Cl)c2)n1C [Example 83],8.70
13,Cc1ncc(-c2ccc(Nc3cc4c(cn3)cc(-c3cnn(C)c3)n4C(=O)OC3CCCC3)c(Cl)c2)n1C [Example 84],8.70
14,Cc1ncc(-c2ccc(Nc3cc4c(cn3)cc(-c3cnn(C)c3)n4C(=O)OC3CCC3)c(Cl)c2)n1C [Example 85],8.40
15,COC(=O)n1c(-c2cnn(C)c2)cc2cnc(Nc3ccc(-c4cnc(C)n4C)cc3Cl)cc21 [Example 86],8.15
16,CCOC(=O)n1c(-c2cnn(C)c2)cc2cnc(Nc3ccc(-c4cnc(C)n4C)cc3Cl)cc21 [Example 87],8.70
17,CCCOC(=O)n1c(-c2cnn(C)c2)cc2cnc(Nc3ccc(-c4cnc(C)n4C)cc3Cl)cc21 [Example 88],8.70
18,CC(C)OC(=O)n1c(-c2cnn(C)c2)cc2cnc(Nc3cc(-c4cnn(C)c4)ccc3Cl)cc21 [Example 89],6.54
19,Cc1cc(Cn2c(-c3cnn(C)c3)cc3cnc(Nc4ccc(C(=O)N(C)C)cc4Cl)cc32)no1 [Example 90],6.46
